Measured values taken from ChEMBL document CHEMBL4422678, “Design and synthesis of novel dual-cyclic RGD peptides for αvβ3 integrin targeting” (Bioorg Med Chem Lett, 2019).
Each block holds one molecule with its values, some of them ahead of it. The source made the active and inactive calls. The calls are words filed in the database; no cut-off is given here. *1 amine or outer side, *2 acyl side, *3 side chain or, on linkers, in order; H or OH if unused. Where a SMILES comes first, the peptide text is derived from it. [ ]: non-standard residue; d: D form. The star is where a group is joined. Dolaproine = CO[C@@H]([C@@H]1CCCN1)[C@@H](C)C(=O)O; X1 = O=C(CCCCC(=O)*)N1Cc2ccccc2C#Cc2ccccc21; Dil = CC[C@H](C)[C@H](NC)[C@@H](CC(=O)O)OC; PABC = O=C(OCc1ccc(N[*:1])cc1)[*:2]; X2 = C[C@@H](N*)[C@@H](O)c1ccccc1; NMeV = CN[C@H](C(=O)O)C(C)C

How the values were obtained:
SK-OV-3 [1] = assay: Cytotoxicity against human SKOV3 cells assessed as inhibition of cell growth after 72 hrs by CCK8 assay; assay type: functional, cell-based; conditions: SK-OV-3, 72 h
MCF7 [2] = assay: Cytotoxicity against human MCF7 cells assessed as inhibition of cell growth after 72 hrs by CCK8 assay; assay type: functional, cell-based; conditions: MCF7, 72 h
Integrin alpha-V/beta-3 [3] = molecular target: T1, Integrin alpha-V/beta-3 (Homo sapiens, UniProt P05106+P06756); assay: Binding affinity to alphaVbeta3 integrin in human SKOV3 cells assessed as inhibition of cell adhesion to fibrinogen measured after 2 hrs by MTT assay; assay type: cell-based
Target sequence in this assay (P05106 27-788 limits assumed): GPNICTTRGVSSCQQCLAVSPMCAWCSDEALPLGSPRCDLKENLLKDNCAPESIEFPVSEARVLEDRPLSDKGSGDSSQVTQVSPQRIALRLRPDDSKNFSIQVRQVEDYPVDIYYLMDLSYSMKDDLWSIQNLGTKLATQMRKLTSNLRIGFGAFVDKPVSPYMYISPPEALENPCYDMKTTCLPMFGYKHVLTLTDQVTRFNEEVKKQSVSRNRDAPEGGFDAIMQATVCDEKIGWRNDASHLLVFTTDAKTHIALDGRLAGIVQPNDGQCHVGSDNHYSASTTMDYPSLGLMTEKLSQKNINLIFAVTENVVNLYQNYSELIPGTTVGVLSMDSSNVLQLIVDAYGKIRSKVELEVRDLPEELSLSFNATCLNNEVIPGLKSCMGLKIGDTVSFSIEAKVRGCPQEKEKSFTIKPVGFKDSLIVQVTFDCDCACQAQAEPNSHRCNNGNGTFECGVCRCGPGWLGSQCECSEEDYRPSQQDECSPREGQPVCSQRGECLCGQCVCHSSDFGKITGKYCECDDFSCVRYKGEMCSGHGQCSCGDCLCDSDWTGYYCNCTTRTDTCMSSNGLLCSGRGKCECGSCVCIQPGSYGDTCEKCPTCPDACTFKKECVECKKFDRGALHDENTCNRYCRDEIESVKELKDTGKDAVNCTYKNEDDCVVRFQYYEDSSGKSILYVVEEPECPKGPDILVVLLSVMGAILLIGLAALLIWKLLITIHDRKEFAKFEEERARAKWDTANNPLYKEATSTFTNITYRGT
Target sequence in this assay (P06756 31-889 limits assumed): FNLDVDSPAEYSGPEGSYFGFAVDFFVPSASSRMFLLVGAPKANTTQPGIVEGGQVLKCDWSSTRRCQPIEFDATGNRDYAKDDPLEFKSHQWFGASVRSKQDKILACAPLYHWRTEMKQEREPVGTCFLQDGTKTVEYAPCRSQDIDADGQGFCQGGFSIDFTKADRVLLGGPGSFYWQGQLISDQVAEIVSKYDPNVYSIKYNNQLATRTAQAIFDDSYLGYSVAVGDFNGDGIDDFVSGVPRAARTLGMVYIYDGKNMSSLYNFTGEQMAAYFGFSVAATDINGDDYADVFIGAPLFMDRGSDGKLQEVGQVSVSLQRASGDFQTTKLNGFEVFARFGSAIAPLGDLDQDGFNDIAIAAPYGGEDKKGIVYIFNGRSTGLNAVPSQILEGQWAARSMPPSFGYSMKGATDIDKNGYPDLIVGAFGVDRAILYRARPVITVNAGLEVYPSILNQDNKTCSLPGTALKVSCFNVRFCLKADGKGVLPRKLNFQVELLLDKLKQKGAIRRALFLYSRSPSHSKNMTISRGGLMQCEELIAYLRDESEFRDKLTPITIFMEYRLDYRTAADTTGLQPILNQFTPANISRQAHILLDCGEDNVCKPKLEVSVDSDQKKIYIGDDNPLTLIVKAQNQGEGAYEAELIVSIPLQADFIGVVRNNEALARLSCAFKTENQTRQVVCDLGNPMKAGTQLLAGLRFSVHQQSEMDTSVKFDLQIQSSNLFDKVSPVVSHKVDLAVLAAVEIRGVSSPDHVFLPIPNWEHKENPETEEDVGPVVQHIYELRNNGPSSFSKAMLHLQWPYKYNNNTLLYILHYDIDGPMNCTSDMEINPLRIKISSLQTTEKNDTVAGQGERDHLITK
Target sequence in this assay (P06756 891-1048 limits assumed): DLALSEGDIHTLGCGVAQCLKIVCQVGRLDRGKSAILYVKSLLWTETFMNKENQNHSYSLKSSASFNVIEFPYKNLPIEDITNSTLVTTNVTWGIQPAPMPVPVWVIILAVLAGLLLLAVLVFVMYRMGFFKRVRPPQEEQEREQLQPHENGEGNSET

MCF7 [4] = assay: Cytotoxicity against human MCF7 cells assessed as inhibition of cell growth at 0.004 uM after 72 hrs by CCK8 assay; assay type: functional; conditions: MCF7, 72 h, read-out: GI
SK-OV-3 [5] = assay: Cytotoxicity against human SKOV3 cells assessed as inhibition of cell growth at 4 uM after 72 hrs by CCK8 assay; assay type: functional; conditions: SK-OV-3, 72 h, read-out: GI
SK-OV-3 [6] = assay: Cytotoxicity against human SKOV3 cells assessed as inhibition of cell growth at 0.04 uM after 72 hrs by CCK8 assay; assay type: functional; conditions: SK-OV-3, 72 h, read-out: GI
SK-OV-3 [7] = assay: Cytotoxicity against human SKOV3 cells assessed as inhibition of cell growth at 40 uM after 72 hrs by CCK8 assay; assay type: functional; conditions: SK-OV-3, 72 h, read-out: GI
MCF7 [8] = assay: Cytotoxicity against human MCF7 cells assessed as inhibition of cell growth at 4 uM after 72 hrs by CCK8 assay; assay type: functional; conditions: MCF7, 72 h, read-out: GI
SK-OV-3 [9] = assay: Cytotoxicity against human SKOV3 cells assessed as inhibition of cell growth at 400 uM after 72 hrs by CCK8 assay; assay type: functional; conditions: SK-OV-3, 72 h, read-out: GI
MCF7 [10] = assay: Cytotoxicity against human MCF7 cells assessed as inhibition of cell growth at 40 uM after 72 hrs by CCK8 assay; assay type: functional; conditions: MCF7, 72 h, read-out: GI
SK-OV-3 [11] = assay: Cytotoxicity against human SKOV3 cells assessed as inhibition of cell growth at 0.0004 uM after 72 hrs by CCK8 assay; assay type: functional; conditions: SK-OV-3, 72 h, read-out: GI
SK-OV-3 [12] = assay: Cytotoxicity against human SKOV3 cells assessed as inhibition of cell growth at 0.004 uM after 72 hrs by CCK8 assay; assay type: functional; conditions: SK-OV-3, 72 h, read-out: GI
MCF7 [13] = assay: Cytotoxicity against human MCF7 cells assessed as inhibition of cell growth at 0.4 uM after 72 hrs by CCK8 assay; assay type: functional; conditions: MCF7, 72 h, read-out: GI
MCF7 [14] = assay: Cytotoxicity against human MCF7 cells assessed as inhibition of cell growth at 400 uM after 72 hrs by CCK8 assay; assay type: functional; conditions: MCF7, 72 h, read-out: GI
MCF7 [15] = assay: Cytotoxicity against human MCF7 cells assessed as inhibition of cell growth at 0.0004 uM after 72 hrs by CCK8 assay; assay type: functional; conditions: MCF7, 72 h, read-out: GI
SK-OV-3 [16] = assay: Cytotoxicity against human SKOV3 cells assessed as inhibition of cell growth at 0.4 uM after 72 hrs by CCK8 assay; assay type: functional; conditions: SK-OV-3, 72 h, read-out: GI
MCF7 [17] = assay: Cytotoxicity against human MCF7 cells assessed as inhibition of cell growth at 0.04 uM after 72 hrs by CCK8 assay; assay type: functional; conditions: MCF7, 72 h, read-out: GI
Integrin alpha-V/beta-3 [18] = molecular target: T1, Integrin alpha-V/beta-3; assay: Binding affinity to alphaVbeta3 integrin in human SKOV3 cells at 200 uM incubated for 3 hrs followed by compound washout prior to DBCO-Cy5 addition and measured after 1 hr by DAPI staining based fluorescence microscopic analysis; assay type: cell-based

Compound: CC[C@H](C)[C@@H]([C@@H](CC(=O)N1CCC[C@H]1[C@H](OC)[C@@H](C)C(=O)N[C@H](C)[C@@H](O)c1ccccc1)OC)N(C)C(=O)[C@@H](NC(=O)[C@H](C(C)C)N(C)C(=O)OCc1ccc(NC(=O)[C@H](CCCNC(=N)N)NC(=O)[C@@H](NC(=O)CCCCC(=O)N2Cc3ccccc3-c3nnn(CCCC(=O)NCCCC[C@@H]4NC(=O)[C@H](Cc5ccccc5)NC(=O)[C@H](CC(=O)O)NC(=O)CNC(=O)[C@H](CCCN=C(N)N)NC4=O)c3-c3ccccc32)C(C)C)cc1)C(C)C
- IC50 (SK-OV-3 [1]): 4.5 µM
- IC50 (MCF7 [2]): 93.2 µM

- IC50 (Integrin alpha-V/beta-3 [3]): 24.5 µM
Compound: [N-]=[N+]=NCCCC(=O)N[C@@H](CCCNC(=N)N)C(=O)NCC(=O)N[C@@H](CC(=O)N[C@H]1CSSC[C@@H](C(=O)O)NC(=O)[C@H](CC(=O)O)NC(=O)CNC(=O)[C@H](CCCNC(=N)N)NC(=O)[C@H](CC(=O)O)NC(=O)CNC(=O)[C@H](CCCNC(=N)N)NC1=O)C(=O)N[C@@H](CCCNC(=N)N)C(=O)NCC(=O)N[C@@H](CC(=O)O)C(=O)N[C@@H](CCCNC(=N)N)C(=O)NCC(=O)N[C@@H](CC(=O)O)C(=O)NCCCC[C@@H]1NC(=O)[C@H](Cc2ccccc2)NC(=O)[C@H](CC(=O)O)NC(=O)CNC(=O)[C@H](CCCN=C(N)N)NC1=O

- IC50 (Integrin alpha-V/beta-3 [3]): 25.1 µM
Compound: [N-]=[N+]=NCCCC(=O)N[C@@H](CCCNC(=N)N)C(=O)NCC(=O)N[C@@H](CC(=O)O)C(=O)N[C@@H](CCCNC(=N)N)C(=O)NCC(=O)N[C@@H](CC(=O)O)C(=O)NCCCC[C@@H]1NC(=O)[C@H](Cc2ccccc2)NC(=O)[C@H](CC(=O)O)NC(=O)CNC(=O)[C@H](CCCN=C(N)N)NC1=O

- IC50 (Integrin alpha-V/beta-3 [3]): 110 µM
Compound: [N-]=[N+]=NCCCC(=O)NCCCC[C@@H]1NC(=O)[C@H](Cc2ccccc2)NC(=O)[C@H](CC(=O)O)NC(=O)CNC(=O)[C@H](CCCN=C(N)N)NC1=O

- IC50 (Integrin alpha-V/beta-3 [3]): 2.13 µM
Compound: [N-]=[N+]=NCCCC(=O)N[C@@H](CCCNC(=N)N)C(=O)NCC(=O)N[C@@H](CC(=O)N[C@H]1CSSC[C@@H](C(=O)O)NC(=O)[C@H](CC(=O)O)NC(=O)CNC(=O)[C@H](CCCNC(=N)N)NC(=O)[C@H](CC(=O)O)NC(=O)CNC(=O)[C@H](CCCNC(=N)N)NC1=O)C(=O)N[C@@H](CCCNC(=N)N)C(=O)NCC(=O)N[C@@H](CC(=O)O)C(=O)NCCCC[C@@H]1NC(=O)[C@H](Cc2ccccc2)NC(=O)[C@H](CC(=O)O)NC(=O)CNC(=O)[C@H](CCCN=C(N)N)NC1=O
- inhibition of growth at 0.004 µM (MCF7 [4]): 13.4%
- inhibition of growth at 4 µM (SK-OV-3 [5]): 23.9%
- inhibition of growth at 0.04 µM (SK-OV-3 [6]): 14.4%
- inhibition of growth at 40 µM (SK-OV-3 [7]): 28.1%
- inhibition of growth at 4 µM (MCF7 [8]): 22.6%
- inhibition of growth at 400 µM (SK-OV-3 [9]): 28.8%
- inhibition of growth at 40 µM (MCF7 [10]): 23.8%
- inhibition of growth at 0.0004 µM (SK-OV-3 [11]): 13.1%
- inhibition of growth at 0.004 µM (SK-OV-3 [12]): 19.5%
- inhibition of growth at 0.4 µM (MCF7 [13]): 17.6%
- inhibition of growth at 400 µM (MCF7 [14]): 30.2%
- inhibition of growth at 0.0004 µM (MCF7 [15]): 18.3%
- inhibition of growth at 0.4 µM (SK-OV-3 [16]): 15.4%
- inhibition of growth at 0.04 µM (MCF7 [17]): 17.5%

- IC50 (Integrin alpha-V/beta-3 [3]): 8.9 µM
Compound: [N-]=[N+]=NCCCC(=O)N[C@@H](CCCNC(=N)N)C(=O)NCC(=O)N[C@@H](CC(=O)O)C(=O)N[C@@H](CCCNC(=N)N)C(=O)NCC(=O)N[C@@H](CC(=O)NCCCC[C@@H]1NC(=O)[C@H](Cc2ccccc2)NC(=O)[C@H](CC(=O)O)NC(=O)CNC(=O)[C@H](CCCN=C(N)N)NC1=O)C(=O)NCCCC[C@@H]1NC(=O)[C@H](Cc2ccccc2)NC(=O)[C@H](CC(=O)O)NC(=O)CNC(=O)[C@H](CCCN=C(N)N)NC1=O

Compound: CC[C@H](C)[C@@H]([C@@H](CC(=O)N1CCC[C@H]1[C@H](OC)[C@@H](C)C(=O)N[C@H](C)[C@@H](O)c1ccccc1)OC)N(C)C(=O)[C@@H](NC(=O)[C@H](C(C)C)N(C)C(=O)OCc1ccc(NC(=O)[C@H](CCCNC(=N)N)NC(=O)[C@@H](NC(=O)CCCCC(=O)N2Cc3ccccc3C#Cc3ccccc32)C(C)C)cc1)C(C)C (X1-VR[PABC][NMeV]V[Dil][Dolaproine]-X2)
- IC50 (SK-OV-3 [1]): 1 µM
- IC50 (MCF7 [2]): 22.3 µM

- Activity (Integrin alpha-V/beta-3 [18]): Active
- IC50 (Integrin alpha-V/beta-3 [3]): 4.2 µM
Compound: [N-]=[N+]=NCCCC(=O)N[C@@H](CCCNC(=N)N)C(=O)NCC(=O)N[C@@H](CC(=O)O)C(=O)N[C@@H](CCCNC(=N)N)C(=O)NCC(=O)N[C@@H](CC(=O)N[C@H]1CSSC[C@@H](C(=O)O)NC(=O)[C@H](CC(=O)O)NC(=O)CNC(=O)[C@H](CCCNC(=N)N)NC(=O)[C@H](CC(=O)O)NC(=O)CNC(=O)[C@H](CCCNC(=N)N)NC1=O)C(=O)NCCCC[C@@H]1NC(=O)[C@H](Cc2ccccc2)NC(=O)[C@H](CC(=O)O)NC(=O)CNC(=O)[C@H](CCCN=C(N)N)NC1=O

Compound: CC[C@H](C)[C@@H]([C@@H](CC(=O)N1CCC[C@H]1[C@H](OC)[C@@H](C)C(=O)N[C@H](C)[C@@H](O)c1ccccc1)OC)N(C)C(=O)[C@@H](NC(=O)[C@H](C(C)C)N(C)C(=O)OCc1ccc(NC(=O)[C@H](CCCNC(=N)N)NC(=O)[C@@H](NC(=O)CCCCC(=O)N2Cc3ccccc3-c3nnn(CCCC(=O)N[C@@H](CCCNC(=N)N)C(=O)NCC(=O)N[C@@H](CC(=O)O)C(=O)N[C@@H](CCCNC(=N)N)C(=O)NCC(=O)N[C@@H](CC(=O)N[C@H]4CSSC[C@@H](C(=O)O)NC(=O)[C@H](CC(=O)O)NC(=O)CNC(=O)[C@H](CCCNC(=N)N)NC(=O)[C@H](CC(=O)O)NC(=O)CNC(=O)[C@H](CCCNC(=N)N)NC4=O)C(=O)NCCCC[C@@H]4NC(=O)[C@H](Cc5ccccc5)NC(=O)[C@H](CC(=O)O)NC(=O)CNC(=O)[C@H](CCCN=C(N)N)NC4=O)c3-c3ccccc32)C(C)C)cc1)C(C)C
- IC50 (SK-OV-3 [1]): 0.44 µM
- IC50 (MCF7 [2]): 19.9 µM
